What is called IC50 is the concentration at which inhibition is half-maximal. Read a low IC50 as higher potency.

Experiment [1] has as its target T1, 3-hydroxy-3-methylglutaryl-coenzyme A reductase (Rattus norvegicus, UniProt P51639).
T1 sequence (P51639 whole entry): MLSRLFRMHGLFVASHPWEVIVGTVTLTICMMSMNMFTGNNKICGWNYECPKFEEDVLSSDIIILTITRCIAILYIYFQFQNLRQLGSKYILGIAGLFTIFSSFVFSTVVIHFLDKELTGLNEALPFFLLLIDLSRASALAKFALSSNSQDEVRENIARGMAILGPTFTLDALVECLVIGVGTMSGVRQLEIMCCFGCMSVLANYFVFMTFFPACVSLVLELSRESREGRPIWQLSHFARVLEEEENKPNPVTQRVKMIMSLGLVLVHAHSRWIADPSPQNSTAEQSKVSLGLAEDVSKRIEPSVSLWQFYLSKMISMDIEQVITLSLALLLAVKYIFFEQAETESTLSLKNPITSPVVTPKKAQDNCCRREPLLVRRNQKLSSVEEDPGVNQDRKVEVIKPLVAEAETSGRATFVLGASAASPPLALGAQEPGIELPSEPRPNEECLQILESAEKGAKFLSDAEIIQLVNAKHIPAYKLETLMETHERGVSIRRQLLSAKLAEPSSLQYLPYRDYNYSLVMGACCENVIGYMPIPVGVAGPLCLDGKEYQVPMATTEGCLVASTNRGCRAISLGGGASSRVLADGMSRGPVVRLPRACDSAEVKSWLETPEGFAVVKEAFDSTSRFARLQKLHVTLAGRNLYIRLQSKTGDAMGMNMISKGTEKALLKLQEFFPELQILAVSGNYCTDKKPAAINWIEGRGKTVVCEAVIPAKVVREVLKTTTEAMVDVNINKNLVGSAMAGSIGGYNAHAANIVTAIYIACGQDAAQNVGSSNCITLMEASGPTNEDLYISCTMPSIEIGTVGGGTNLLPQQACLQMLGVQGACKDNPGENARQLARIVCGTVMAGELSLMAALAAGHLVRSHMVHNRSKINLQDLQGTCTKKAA
Description: Inhibitory activity against HMG-CoA reductase.

The target in experiment [2] is T2, 3-hydroxy-3-methylglutaryl-coenzyme A reductase (Rattus norvegicus) (UniProt P51639).
T2 sequence (whole entry): T1 sequence (P51639 whole entry)
Description: Potency against HMG-CoA reductase relative to Compactin.

As to `O=C1C[C@H](O)CC(CCc2ccc(Br)c3ccccc23)O1` (some centres undefined), it took 23.3 µM to reach half-maximal inhibition in experiment [1] (IC50). The same compound had a Relative potency in experiment [2] of 0.15.

As for `O=C1C[C@H](O)CC(CCc2ccc(Cl)c3cc(Cl)ccc23)O1` (some centres undefined), the IC50 in experiment [1] turned out to be 7 µM. In addition, the Relative potency in experiment [2] was determined as 0.3.

In experiment [1], `O=C1C[C@H](O)C[C@@H](/C=C/c2cccc3cccc(Br)c23)O1` displayed an IC50 of 4.12 µM. The Relative potency in experiment [2] was 0.72.

The compound `O=C1C[C@H](O)CC(CCc2cccc3ccccc23)O1` (some centres undefined) gave an IC50 in experiment [1] of 81 µM. Moreover, in experiment [2], the Relative potency was found to be 0.043.

Consider `Cc1cc(Cl)c(CCC2C[C@@H](O)CC(=O)O2)c2cc(Cl)ccc12` (some centres undefined), for which half-maximal inhibition in experiment [1] (IC50) required 0.13 µM. Besides, the Relative potency in experiment [2] amounted to 15.

In the case of `Cc1ccc2c(C)cc(C)c(CCC3C[C@@H](O)CC(=O)O3)c2c1` (some centres undefined), in experiment [1], half-maximal inhibition (IC50) required 0.36 µM. In experiment [2], this compound registered a Relative potency of 5.

In experiment [1], `O=C1C[C@H](O)CC(CCc2c(Cl)cc(Cl)c3ccc(Cl)cc23)O1` (some centres undefined) yielded an IC50 of 0.032 µM. This compound also gave a Relative potency in experiment [2] of 47.

Regarding `O=C1C[C@H](O)CC(CCc2c(Cl)cc(Cl)c3cc(Cl)ccc23)O1` (some centres undefined), the IC50 in experiment [1] is 0.033 µM. The Relative potency in experiment [2] is 46.

In turn, `Cc1cc(Cl)c2ccc(Cl)cc2c1CCC1C[C@@H](O)CC(=O)O1` (some centres undefined) gave an IC50 in experiment [1] of 0.06 µM. In experiment [2], this compound returned a Relative potency of 30.

In experiment [1], `O=C1C[C@H](O)C[C@@H](/C=C/c2ccc(Br)c3ccccc23)O1` registered an IC50 of 4 µM. Further, the Relative potency in experiment [2] came out at 0.96.

Compound `Cc1cc(C)c2ccc(Cl)cc2c1CCC1C[C@@H](O)CC(=O)O1` (some centres undefined) came in with an IC50 in experiment [1] of 0.2 µM. In addition, the Relative potency in experiment [2] is 7.

`O=C1C[C@H](O)C[C@@H](/C=C/c2c(Cl)ccc3ccccc23)O1` registered a 50% inhibitory concentration (IC50) in experiment [1] of 1.51 µM. Further, the Relative potency in experiment [2] stood at 2.3.

Values taken from ChEMBL document CHEMBL1124699, “3-Hydroxy-3-methylglutaryl-coenzyme A reductase inhibitors. 6. Trans-6-[2-(substituted-1-naphthyl)ethyl(or ethenyl)]-3,4,5,6-tetrahydro-4-hydroxy-2H-pyran-2-ones” (J Med Chem, 1990).
